# Source: patent US6350762B1, “Dihydropyridine derivative” (Ajinomoto Co., Inc., priority 1997, dated 2002)
# How the values were obtained:
# [1] = molecular target: T1, L-type calcium channel (Rattus norvegicus, UniProt P22002); assay: Activity of inhibiting L-type calcium channel: relaxation of KCl contraction of isolated rat thoracic aorta; design: species or system Wistar rats; conditions: for IC50: KCl contraction of isolated rat thoracic aorta, read-out: L-type inhibition IC50
# T1 construct: The slips of thoracic aorta extracted from Wistar rats were used; from tissue; host or cells: isolated thoracic aorta rings of Wistar rats, endothelium removed
# Protocol: Activity of Inhibiting the Action of L-type Calcium Channel
# The activity of the dihydropyridine derivatives of the present invention to inhibit the action of L-type calcium channel was determined by the following method wherein the relaxation reaction on the KCl contraction of isolated thoracic aorta samples of rats was utilized.
# 1) Preparation of Isolated Thoracic Aorta Samples of Rats
# The slips of thoracic aorta extracted from Wistar rats were used. Blood vessels were cut to form rings having a width of about 3 mm. The endothelial cells of the blood vessels were mechanically removed. The samples were suspended in a strain gauge in Tyrode solution (comprising 158.3 mM of NaCl, 4.0 mM of KCl, […] of MgCl2, 0.42 mM of NaH2PO4, 10 mM of NaHCO3, 2 mM of CaCl2 and 5 mM of glucose) in which a gaseous mixture of O2 (95%) and CO2 (5%) was introduced, to apply a stationary tension of 2 g. The tension of the blood vessel was recorded with a multipen recorder (Rikadenki Kogyo Co., Ltd.) by using a transducer after the amplification with a tension amplifier (EF-601G; Nihon Kohden Corporation). The experiments were conducted at 37° C.
# 2) Determination of Relaxation Reaction Against KCl contraction
# After the tension was stabilized, the nutrient solution in the sample tank was replaced with High K^+ Tyrode solution (comprising 112.3 mM of NaCl, 50 mM of KCl, 1.05 mM of MgCl2, 0.42 mM of NaH2PO4, 10 mM of NaHCO3, 2 mM of CaCl2 and 5 mM of glucose) to cause the contraction reaction. 30 minutes after, the solution in the sample tank was replaced with normal Tyrode solution. Then, the solution in the sample tank was again replaced with High K^+ Tyrode solution and the contraction reaction was observed. After the maximum contraction reaction occurred, a test compound was cumulatively added to realize concentrations of 10^−9, 10^−8, 10^−7 and 10^−6 M at intervals of 90 minutes. The inhibition rate of the test compound on the maximum contraction reaction was employed as the index of the activity of inhibiting the action of L-type calcium channel.
# [2] = molecular target: T2, N-type calcium channel (Rattus norvegicus, UniProt Q02294); assay: Inhibition activity of N-type calcium channel (patch clamp method), rat maxillary sympathetic ganglion cells; assay type: cell-based, Wistar rats; conditions: 0.1 uM compound, whole cell voltage clamp, barium current
# T2 construct: from tissue; host or cells: acutely dissociated sympathetic ganglion cells of Wistar rats (2 to 4 weeks old)
# T2 sequence (Q02294 whole entry): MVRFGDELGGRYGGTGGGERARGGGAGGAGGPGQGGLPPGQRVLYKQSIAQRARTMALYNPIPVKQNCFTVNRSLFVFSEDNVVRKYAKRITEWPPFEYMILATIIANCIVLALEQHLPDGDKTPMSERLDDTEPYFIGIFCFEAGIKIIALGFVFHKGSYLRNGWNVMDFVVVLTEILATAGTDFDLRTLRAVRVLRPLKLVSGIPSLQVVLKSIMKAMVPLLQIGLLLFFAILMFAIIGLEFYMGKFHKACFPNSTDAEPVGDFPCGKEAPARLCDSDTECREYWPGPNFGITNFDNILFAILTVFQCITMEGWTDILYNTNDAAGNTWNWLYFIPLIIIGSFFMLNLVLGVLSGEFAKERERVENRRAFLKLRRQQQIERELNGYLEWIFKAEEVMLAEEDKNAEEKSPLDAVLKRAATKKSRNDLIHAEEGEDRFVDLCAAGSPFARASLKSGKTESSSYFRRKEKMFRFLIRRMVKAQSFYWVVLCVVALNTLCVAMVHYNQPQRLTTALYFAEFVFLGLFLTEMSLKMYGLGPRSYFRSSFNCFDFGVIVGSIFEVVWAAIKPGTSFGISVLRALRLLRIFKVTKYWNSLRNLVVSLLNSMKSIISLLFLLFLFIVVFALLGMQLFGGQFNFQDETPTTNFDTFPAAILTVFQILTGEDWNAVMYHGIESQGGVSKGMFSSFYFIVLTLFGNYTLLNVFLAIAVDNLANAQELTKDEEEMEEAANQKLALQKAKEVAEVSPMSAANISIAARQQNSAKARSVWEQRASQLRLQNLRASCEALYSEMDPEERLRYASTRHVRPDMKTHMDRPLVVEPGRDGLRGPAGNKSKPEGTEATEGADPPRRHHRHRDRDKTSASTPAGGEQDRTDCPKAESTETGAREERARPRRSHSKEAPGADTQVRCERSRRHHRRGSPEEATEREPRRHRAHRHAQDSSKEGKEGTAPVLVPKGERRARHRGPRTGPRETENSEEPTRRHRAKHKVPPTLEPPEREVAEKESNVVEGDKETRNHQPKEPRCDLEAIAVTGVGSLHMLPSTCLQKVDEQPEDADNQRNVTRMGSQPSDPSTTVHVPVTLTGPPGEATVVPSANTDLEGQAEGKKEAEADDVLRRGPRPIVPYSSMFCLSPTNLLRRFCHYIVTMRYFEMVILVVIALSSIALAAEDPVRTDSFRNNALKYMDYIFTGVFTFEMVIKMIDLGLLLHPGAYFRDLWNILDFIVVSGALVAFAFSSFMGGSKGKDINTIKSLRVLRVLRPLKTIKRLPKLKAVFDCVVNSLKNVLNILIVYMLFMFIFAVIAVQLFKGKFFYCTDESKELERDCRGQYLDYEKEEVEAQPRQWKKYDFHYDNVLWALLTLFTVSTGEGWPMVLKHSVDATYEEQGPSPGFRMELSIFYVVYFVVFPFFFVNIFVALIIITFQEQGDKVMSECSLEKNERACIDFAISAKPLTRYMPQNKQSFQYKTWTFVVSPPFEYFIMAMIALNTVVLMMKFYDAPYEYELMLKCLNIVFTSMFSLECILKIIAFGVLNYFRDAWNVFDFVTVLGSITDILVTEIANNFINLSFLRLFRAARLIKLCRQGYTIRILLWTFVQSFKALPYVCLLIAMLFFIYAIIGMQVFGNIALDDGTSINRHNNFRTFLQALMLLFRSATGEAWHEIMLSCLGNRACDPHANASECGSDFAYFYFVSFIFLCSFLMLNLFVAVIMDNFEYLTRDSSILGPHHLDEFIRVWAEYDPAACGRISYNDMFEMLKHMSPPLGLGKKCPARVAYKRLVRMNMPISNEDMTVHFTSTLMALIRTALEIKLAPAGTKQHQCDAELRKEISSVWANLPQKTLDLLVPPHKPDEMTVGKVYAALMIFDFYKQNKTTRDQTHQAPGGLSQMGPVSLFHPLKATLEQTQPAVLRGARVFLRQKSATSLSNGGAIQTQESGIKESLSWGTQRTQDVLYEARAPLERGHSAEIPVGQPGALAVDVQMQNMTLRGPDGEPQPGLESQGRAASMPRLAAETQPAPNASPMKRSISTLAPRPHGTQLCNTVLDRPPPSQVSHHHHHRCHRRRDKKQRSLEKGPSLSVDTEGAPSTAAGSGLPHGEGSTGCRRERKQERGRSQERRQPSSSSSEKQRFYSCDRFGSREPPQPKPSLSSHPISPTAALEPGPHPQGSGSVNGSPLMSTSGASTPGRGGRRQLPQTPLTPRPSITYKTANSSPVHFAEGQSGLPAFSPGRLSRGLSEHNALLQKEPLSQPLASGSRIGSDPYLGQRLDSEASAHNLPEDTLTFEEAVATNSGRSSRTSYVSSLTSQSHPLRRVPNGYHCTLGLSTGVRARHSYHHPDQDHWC
# T2 sequence (P54290 25-944 partner limits assumed): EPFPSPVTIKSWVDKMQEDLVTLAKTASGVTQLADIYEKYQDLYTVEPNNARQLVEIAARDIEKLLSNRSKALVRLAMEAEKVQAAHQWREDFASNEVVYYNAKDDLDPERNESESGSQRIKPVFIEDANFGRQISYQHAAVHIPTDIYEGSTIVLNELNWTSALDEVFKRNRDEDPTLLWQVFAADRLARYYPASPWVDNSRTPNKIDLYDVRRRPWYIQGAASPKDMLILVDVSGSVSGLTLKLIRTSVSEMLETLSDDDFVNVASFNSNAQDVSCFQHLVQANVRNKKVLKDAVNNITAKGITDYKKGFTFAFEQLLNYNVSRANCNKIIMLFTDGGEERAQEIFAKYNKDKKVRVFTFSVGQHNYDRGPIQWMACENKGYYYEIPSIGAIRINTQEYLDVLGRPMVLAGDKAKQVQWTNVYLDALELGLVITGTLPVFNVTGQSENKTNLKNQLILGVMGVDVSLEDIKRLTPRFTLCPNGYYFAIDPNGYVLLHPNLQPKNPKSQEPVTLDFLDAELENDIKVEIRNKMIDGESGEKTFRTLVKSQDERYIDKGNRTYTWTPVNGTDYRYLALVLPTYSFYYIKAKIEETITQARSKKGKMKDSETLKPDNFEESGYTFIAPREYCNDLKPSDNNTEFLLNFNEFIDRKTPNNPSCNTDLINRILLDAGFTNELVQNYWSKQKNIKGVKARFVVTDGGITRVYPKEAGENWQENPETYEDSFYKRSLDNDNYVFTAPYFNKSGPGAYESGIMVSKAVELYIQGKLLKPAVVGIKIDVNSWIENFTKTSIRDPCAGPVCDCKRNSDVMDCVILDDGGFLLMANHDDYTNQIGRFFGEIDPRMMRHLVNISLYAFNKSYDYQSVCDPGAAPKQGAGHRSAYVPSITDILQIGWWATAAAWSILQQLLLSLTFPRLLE
# T2 sequence (P54290 945-1091 partner limits assumed): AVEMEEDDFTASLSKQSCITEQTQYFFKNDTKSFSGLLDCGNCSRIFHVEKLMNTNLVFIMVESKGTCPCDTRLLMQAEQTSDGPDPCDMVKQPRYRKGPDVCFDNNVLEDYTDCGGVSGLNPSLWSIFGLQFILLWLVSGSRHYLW
# T2 sequence (P54287 whole entry partner): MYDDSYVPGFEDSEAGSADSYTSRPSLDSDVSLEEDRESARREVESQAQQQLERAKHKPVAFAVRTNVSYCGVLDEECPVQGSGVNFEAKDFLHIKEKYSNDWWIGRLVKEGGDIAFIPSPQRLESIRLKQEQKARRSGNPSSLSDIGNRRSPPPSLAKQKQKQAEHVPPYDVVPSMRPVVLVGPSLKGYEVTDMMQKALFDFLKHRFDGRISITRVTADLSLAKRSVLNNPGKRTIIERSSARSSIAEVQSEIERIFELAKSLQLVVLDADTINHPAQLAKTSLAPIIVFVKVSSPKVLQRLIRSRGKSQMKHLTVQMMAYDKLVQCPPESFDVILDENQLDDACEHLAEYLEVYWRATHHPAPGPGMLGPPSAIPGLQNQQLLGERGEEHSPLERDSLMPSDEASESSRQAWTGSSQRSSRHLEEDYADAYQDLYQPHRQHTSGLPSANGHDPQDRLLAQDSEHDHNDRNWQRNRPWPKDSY
# Protocol: Inhibition Activity of N-type Calcium Channel (Patch Clamp Method)
# 1) Preparation of Cells of Maxillary Sympathetic Ganglions of Rats
# The cervix of each of Wistar rats (2 to 4 weeks old) was opened to expose the maxillary ganglions under anesthesia with pentobarbital. A pair of the ganglions were removed and immediately washed with Ca^2+-free Tyrode solution cooled with ice. Each ganglion was cut into 3 or 4 pieces and kept in the Ca^2+-free Tyrode solution for 15 minutes. Then, these pieces were treated with papain [Washington Biochemicals (lot#35J557); 20 U/ml] for 20 minutes and then with a mixture of 2-type collagenase [Washington Biochemicals (CLS2); 5900 U/ml]and dispase [Calbiochem (lot#1312973); 16 mg/ml] for one hour. After enzymatic treatment, the ganglion cells were mechanically isolated by pipetting. The isolated ganglion cells were used for the experiments within 6 hours.
# 2) Determination of Calcium Electric Current
# The calcium electric current was determined by the whole cell voltage clamp method under the fixed membrane potential. The pipette electrode was pulled from glass tube (inner diameter: 1.5 mm; Narishige) in two stage of a vertical pipette puller (PB-7; Narishige). The ionic current was amplified with a patch amplifier (CEZ-2300; Nihon Kohden Corporation). The noises were cut at 10 kHz (E-3201B, NF Electronic Instrument) and then the ionic current was monitored on a storage oscilloscope (DS-9121, Iwatsu) and, at the same time, recorded with a DAT data recorder (RD-120TE, TEAC). Then it was passed through a 1 kHz filter and recorded in a computer (Compaq DeskPro) with pCLAMP software (Axon Instrument) of 3 kHz. All the experiments were performed at room temperature (25±2° C.). In the measurement of the current through the calcium channel, 10 mM barium (composition of the solution: shown below) was used in place of calcium as the charge carrier. The transmission of barium through the calcium channel was higher than that of calcium in the sympathetic ganglion cells, and the calcium-dependent channel inactivation was slight when barium was used.
# The test compounds were rapidly administered by Y-tube method by Murase et al. [Brain Res. 525, 84 (1990)]. Each compound was dissolved in DMSO preparing 10 mM mother solution. At the highest drug concentration used, the vehicle (0.1%) had no significant effect on the calcium electric current.
# Composition of Normal Tyrode's solution: NaCl; 143, KCl; 4, MgCl2; 0.5; CaCl2; 1.8, glucose; 5.5, NaH2PO4; 0.33, HEPES; 5 (Mm). The pH was adjusted to 7.4 with tris-OH.
# Composition of Ca-free Tyrode's solution: the same as that of the Normal Tyrode's solution except that it was free of CaCl2.
# External solution for the determination of calcium electric current (mM): TEACl; 144, CsCl;. […]
# [3] = molecular target: T3, N-type calcium channel (Homo sapiens, UniProt Q00975); assay: Activity of inhibiting N-type calcium channel (fluorescent dye method), IMR-32 cells; assay type: cell-based; conditions: fluorescent dye (fura-2) method, 60 mM KCl stimulation, 1 μM Nifedipine present; for IC50: read-out: N-type inhibition pIC50 (converted)
# T3 construct: Human neuroblastoma cell IMR-32 was obtained from ATCC (American Type Culture Collection); host or cells: IMR-32 human neuroblastoma cells, differentiated with dibutyl cAMP and bromodeoxyuridine
# Protocol: Activity of Inhibiting the Action of N-type Calcium Channel (Fluorescent Dye Method):
# Human neuroblastoma cell IMR-32 was obtained from ATCC (American Type Culture Collection). The culture medium was prepared by adding 2 mM of L-glutamine (GIBCO), 1 mM of sodium pyruvate of pH 6.5 (GIBCO), a liquid antibiotic/antimicotic mixture (GIBCO) and 10% fetal calf serum (Cell Culture Technologies) to an Eagle minimum essential medium (GIBCO) free of Phenol Red and containing earle's salts supplyment. 3 ml of 1×10^5/ml IMR-32 cells was spread on a glass dish (Iwaki Glass Co., Ltd.) having a bottom diameter of 35 mm, which had been treated with poly-D-lysine (SIGMA) and also with collagen (COLLAGEN VITROGEN 100; a product of Collagen Co.). After the culture for 2 days, 1 mM (final concentration) of dibutyl cAMP and 2.5 μM of bromodeoxyuridine (SIGMA) were added to the culture mixture. After the culture for additional 10 to 14 days, the cells were used for the activity determination. The IMR-32 cell medium prepared as described above was replaced with Eagle minimum essential medium (GIBCO) containing 1 ml of 10 μM fura-2/AM (Dojin Kagaku Co.) and earle's salts supplyment but free of Phenol Red, and the incubation was conducted at 25° C. for one hour.
# Then the medium was replaced with fura-2/AM-free Eagle minimum essential medium (GIBCO) free of Phenol Red and containing earle's salts supplyment. After conducting the incubation at 37° C. for one hour, the medium was replaced with a recording medium (comprising 20 mM of HEPES-KOH, 115 mM of NaCl, 5.4 mM of KCl, 0.8 mM of MgCl2, 1.8 mM of CaCl2 and 13.8 mM of D-glucose). The N-calcium channel inhibition activity was determined and analyzed with a fluorescent microscope (Nikon corporation) and an image analysis apparatus ARGUS 50 (Hamamatsu Photonics). Namely, a recording medium (comprising 20 mM of HEPES-KOH, 115 mM of NaCl, 5.4 mM of KCl, 0.8 mM of MgCl2, 1.8 mM of CaCl2 and 13.8 mM of D-glucose) containing 1 μM of Nifedipine was applied to the cells and refluxed by Y-tube method for 2 minutes. Then, a 60 mM potassium chloride-containing stimulating agent was rapidly given. Thereafter, 60 mM potassium chloride-containing stimulating agents which further contained 0.1, 1 or 10 μM of a test compound were rapidly and successively administered by Y-tube method to determine the channel inhibition activity. Finally, 60 mM potassium chloride-containing stimulating agent further containing 1 μM of omega conotoxin (Peptide Kenkyu-sho) was rapidly given by Y-tube method to realize 100% inhibition of the N-type calcium channel.
# [4] = 10^−7 M compound, inhibition rate on maximum KCl contraction of rat thoracic aorta
"L-type inhibition 10^−7 M (%) [1, 4] [%]",IC50 [1] [nM],N-type inhibition 0.1 uM (%) [2] [%],N-type inhibition pIC50 [3],"inhibition at 0.1 µM [1, 4] [%]",inhibition at 0.1 µM [2] [%],IC50 [3] [nM],Molecule
21,220,24,5.9,,,,"(3-phenyl-2-propene-1-yl) 4-(3-chlorophenyl)-5-cyano-2,6-dimethyl-1,4-dihydropyridine-3-carboxylate [Example 12]"
,> 1000,,,-6,16,1580,"CC1=C(C(=O)O)C(c2ccc([N+](=O)[O-])cc2)C(C(=O)NCC=Cc2ccccc2)=C(C)N1 (stereo not shown) [Example 17, 2,6-dimethyl-4-(4-nitrophenyl)-5-[(3-phenyl-2-propene-1-yl)carbamoyl]-1,4-dihydropyridine-3-carboxylic acid]"
,914,,,-7,16,1580,"CC1=C(C(=O)O)C(c2cccc([N+](=O)[O-])c2)C(C(=O)NC/C=C/c2ccccc2)=C(C)N1 (stereo not shown) [Example 4, 2,6-dimethyl-4-(3-nitrophenyl)-5-(3-phenyl-2-propene-1-ylcarbamoyl)-1,4-dihydropyridine-3-carboxylc acid]"
,,,,,,631,"CC1=C(C(=O)O)C(c2cccc(Cl)c2)C(C(=O)NCCC(c2ccccc2)c2ccccc2)=C(C)N1 (stereo not shown) [Example 34, 4-(3-chlorophenyl)-2,6-dimethyl-5-(3,3-diphenylpropylcarbamoyl)-1,4-dihydropyridine-3-carboxylic acid]"
,,,,,,2510,"CC1=C(C(=O)O)C(c2cccc(C#N)c2)C(C(=O)NCC=Cc2ccccc2)=C(C)N1 (stereo not shown) [Example 10, 4-(3-cyanophenyl)-2,6-dimethyl-5-(3-phenyl-2-propene-1-ylcarbamoyl)-1,4-dihydropyridine-3-carboxylic acid]"
,> 1000,,,19,35,5010,"CC1=C(C(=O)O)C(c2cccc(Cl)c2)C(C(=O)NCC=Cc2ccccc2)=C(C)N1 (stereo not shown) [Example 1, 4-(3-chlorophenyl)-2,6-dimethyl-5-(3-phenyl-2-propene-1-ylcarbamoyl)-1,4-dihydropyridine-3-carboxylic acid]"
,,,,,,794,"CC1=C(C(=O)O)C(c2cccc(Cl)c2)C(C(=O)NCC(=O)Nc2ccccc2)=C(C)N1 (stereo not shown) [Example 21, 4-(3-chlorophenyl)-2,6-dimethyl-5-(phenylcarbamoylmethylcarbamoyl)-1,4-dihydropyridine-3-carboxylic acid]"
